Assay results reported in the supplement of paper PMC10307832.

Assays:
Assay in all cases: relative viability (nuclei count vs DMSO), 5 days (fraction); higher = more cells survive
[1] = compound: CCn1c(-c2nonc2N)nc2c(C#CC(C)(C)O)ncc(OC[C@H]3CCCNC3)c21 + Cc1cc(Nc2cc(N3CCN(C)CC3)nc(Sc3ccc(NC(=O)C4CC4)cc3)n2)n[nH]1 [Tozasertib] (partner 0.1 µM)
Procedure, shortened: (§1)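 Lung cancer cell lines in 1536-well plates got either a single drug or a fixed anchor-drug dose together with five library-drug doses (not always all listed) in √10 steps, by pin tool, on the day after seeding. Nuclei were counted after 5 days, and relative viability is the treated-to-vehicle ratio of nuclei counts. Values are medians of duplicate plates.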

[2] = compound: CCn1c(-c2nonc2N)nc2c(C#CC(C)(C)O)ncc(OC[C@H]3CCCNC3)c21 + O=C(c1cc(Cc2n[nH]c(=O)c3ccccc23)ccc1F)N1CCN(C(=O)C2CC2)CC1 [Olaparib] (partner 8 µM)
Procedure, shortened: as §1

BAM7 + Pictilisib = compound: CCOC1=CC=CC=C1N=NC2=C(NN(C2=O)C3=NC(=CS3)C4=CC=CC=C4)C [BAM7] + CS(=O)(=O)N1CCN(Cc2cc3nc(-c4cccc5[nH]ncc45)nc(N4CCOCC4)c3s2)CC1 [Pictilisib] (partner 1 µM)
Procedure, shortened: as §1

BAM7 + Foretinib = compound: CCOC1=CC=CC=C1N=NC2=C(NN(C2=O)C3=NC(=CS3)C4=CC=CC=C4)C [BAM7] + COc1cc2c(Oc3ccc(NC(=O)C4(C(=O)Nc5ccc(F)cc5)CC4)cc3F)ccnc2cc1OCCCN1CCOCC1 [Foretinib] (partner 0.25 µM)
Procedure, shortened: as §1

| Cell Line | relative viability ([1]; first compound 0.01 µM) | relative viability ([1]; first compound 0.03162 µM) | relative viability ([1]; first compound 0.1 µM) | relative viability ([1]; first compound 0.3162 µM) | relative viability ([1]; first compound 1 µM) | relative viability ([2]; first compound 0.01 µM) | relative viability ([2]; first compound 0.1 µM) | relative viability ([2]; first compound 0.3162 µM) | relative viability ([2]; first compound 1 µM) | relative viability (BAM7 + Pictilisib; first compound 0.5 µM) | relative viability (BAM7 + Pictilisib; first compound 5 µM) | relative viability (BAM7 + Pictilisib; first compound 15.81 µM) | relative viability (BAM7 + Pictilisib; first compound 50 µM) | relative viability (BAM7 + Foretinib; first compound 0.5 µM) | relative viability (BAM7 + Foretinib; first compound 5 µM) | relative viability (BAM7 + Foretinib; first compound 15.81 µM) | relative viability (BAM7 + Foretinib; first compound 50 µM) | relative viability ([2]; first compound 0.03162 µM) |
| --- | --- | --- | --- | --- | --- | --- | --- | --- | --- | --- | --- | --- | --- | --- | --- | --- | --- | --- |
| NCI-H2087 | 0.264 | 0.258 | 0.248 | 0.259 | 0.303 | 0.528 | 0.533 | 0.569 | 0.543 | 1.09 | 1.1 | 0.989 | 0.893 | 1.18 | 1.23 | 0.995 | 1.12 | – |
| BEN | 0.588 | 0.481 | 0.476 | 0.53 | 0.515 | 1.14 | 1.15 | 0.919 | 0.966 | 0.611 | 0.642 | 0.518 | 0.59 | 0.694 | 0.639 | 0.634 | 0.618 | 1.19 |
| LCLC-103H | 0.41 | 0.555 | 0.432 | 0.472 | 0.453 | 0.705 | 0.747 | 0.766 | 0.795 | 0.611 | 0.654 | 0.604 | 0.687 | 0.693 | 0.741 | 0.739 | 0.777 | 0.795 |
| EKVX | 0.341 | 0.37 | 0.416 | 0.405 | 0.368 | 0.89 | 0.926 | 0.768 | 0.757 | 0.458 | 0.512 | 0.335 | 0.415 | 0.792 | 0.79 | 0.541 | 0.987 | 0.986 |
| LXF-289 | 0.218 | 0.194 | 0.169 | 0.184 | 0.197 | 1.06 | 1.03 | 0.973 | 1.05 | 0.892 | 0.844 | 0.766 | 0.786 | 1.04 | 0.968 | 0.986 | 0.961 | 1.1 |
| ABC-1 | 0.167 | 0.169 | 0.176 | 0.151 | 0.154 | 0.684 | 0.977 | 1.05 | 1.03 | 0.746 | 0.674 | 0.984 | 0.857 | 1.05 | 1.17 | 0.95 | 1.19 | – |
| NCI-H650 | 0.724 | 0.746 | 0.73 | 0.723 | 0.694 | 0.387 | 0.435 | 0.371 | 0.392 | 0.893 | 1.03 | 0.896 | 0.77 | 0.988 | 1.14 | 1 | 0.992 | 0.43 |
| NCI-H1650 | 0.398 | 0.474 | 0.44 | 0.403 | 0.44 | 0.782 | 0.893 | 0.761 | 0.738 | 0.524 | 0.572 | 0.565 | 0.699 | 1.34 | 1.2 | 1.01 | 1.04 | 0.837 |
| NCI-H2085 | 0.81 | 0.771 | 0.811 | 0.822 | 0.729 | 0.758 | 0.795 | 0.755 | 0.725 | 0.388 | 0.43 | 0.365 | 0.439 | 0.973 | 1.18 | 0.743 | 1.19 | 0.807 |
| NCI-H1793 | 0.361 | 0.421 | 0.487 | 0.343 | 0.35 | 0.765 | – | 0.742 | 0.933 | 0.445 | 0.3 | 0.317 | 0.358 | 0.679 | 0.619 | 0.727 | 0.928 | 1.26 |
| LC-2-ad | 0.457 | 0.442 | 0.474 | 0.44 | 0.451 | 0.739 | 0.716 | 0.657 | 0.698 | 0.581 | 0.222 | 0.383 | 0.427 | 0.908 | 0.911 | 0.829 | 0.908 | 0.719 |
| COR-L 105 | 0.31 | 0.432 | 0.407 | 0.367 | 0.374 | 0.658 | 0.689 | 0.696 | 1.19 | 0.366 | 0.427 | 0.432 | 0.455 | 0.957 | 1.24 | 0.937 | 0.979 | 0.759 |
| NCI-H1355 | 0.572 | 0.629 | 0.549 | 0.611 | 0.612 | 0.689 | 0.734 | 0.709 | 0.735 | 0.462 | 0.41 | 0.384 | 0.435 | 0.936 | 0.907 | 0.795 | 0.791 | 0.774 |
| H3255 | 0.549 | 0.646 | 0.63 | 0.547 | 0.615 | 0.571 | 0.638 | 0.483 | 0.564 | 0.544 | 0.652 | 0.568 | 0.579 | 0.774 | 0.868 | 0.806 | 0.858 | 0.59 |
| NCI-H1993 | 0.585 | 0.591 | 0.549 | 0.609 | 0.574 | 1.14 | 0.963 | 0.943 | 0.985 | 0.82 | 0.896 | 0.778 | 0.879 | 0.73 | 0.738 | 0.717 | 0.708 | 1.13 |
